This passage reports IC50 results from patent US20260184697A1, “EZH1/2 INHIBITOR, PREPARATION THEREOF, AND USE THEREOF IN ANTI-TUMOR THERAPY” (JIANGSU TASLY DIYI PHARMACEUTICAL CO., LTD., priority 2022, published 2026).

The structures appear in SMILES notation. Read-outs that look alike come from different tables or passages of the source. A value given as a limit tells only on which side of the number the result lay.

For one test, the target named is T1, EZH1/SUZ/EED (Homo sapiens, UniProt O75530+Q15022+Q92800).
T1 construct: purchased BPS 51006
T1 sequence (Q92800 2-747 limits assumed): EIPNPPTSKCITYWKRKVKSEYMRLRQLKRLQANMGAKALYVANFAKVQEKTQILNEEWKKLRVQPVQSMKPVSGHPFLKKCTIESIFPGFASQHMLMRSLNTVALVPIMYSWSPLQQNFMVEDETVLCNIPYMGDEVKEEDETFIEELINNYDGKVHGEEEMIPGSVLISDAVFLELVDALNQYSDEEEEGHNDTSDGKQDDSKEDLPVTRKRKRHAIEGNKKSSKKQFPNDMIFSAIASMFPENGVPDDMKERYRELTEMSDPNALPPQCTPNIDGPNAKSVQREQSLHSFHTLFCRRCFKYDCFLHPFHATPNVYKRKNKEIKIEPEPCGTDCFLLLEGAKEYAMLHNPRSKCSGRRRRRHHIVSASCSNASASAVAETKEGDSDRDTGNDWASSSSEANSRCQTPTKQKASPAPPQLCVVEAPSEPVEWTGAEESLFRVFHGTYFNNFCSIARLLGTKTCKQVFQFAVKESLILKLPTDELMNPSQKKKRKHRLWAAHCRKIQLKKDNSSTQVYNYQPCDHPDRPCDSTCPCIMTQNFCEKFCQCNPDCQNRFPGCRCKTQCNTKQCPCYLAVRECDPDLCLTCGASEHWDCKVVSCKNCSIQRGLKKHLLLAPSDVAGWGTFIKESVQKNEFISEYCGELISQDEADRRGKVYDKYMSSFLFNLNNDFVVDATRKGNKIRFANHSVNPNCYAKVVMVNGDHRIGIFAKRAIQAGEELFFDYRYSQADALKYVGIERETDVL
T1 sequence (Q15022 2-739 partner limits assumed): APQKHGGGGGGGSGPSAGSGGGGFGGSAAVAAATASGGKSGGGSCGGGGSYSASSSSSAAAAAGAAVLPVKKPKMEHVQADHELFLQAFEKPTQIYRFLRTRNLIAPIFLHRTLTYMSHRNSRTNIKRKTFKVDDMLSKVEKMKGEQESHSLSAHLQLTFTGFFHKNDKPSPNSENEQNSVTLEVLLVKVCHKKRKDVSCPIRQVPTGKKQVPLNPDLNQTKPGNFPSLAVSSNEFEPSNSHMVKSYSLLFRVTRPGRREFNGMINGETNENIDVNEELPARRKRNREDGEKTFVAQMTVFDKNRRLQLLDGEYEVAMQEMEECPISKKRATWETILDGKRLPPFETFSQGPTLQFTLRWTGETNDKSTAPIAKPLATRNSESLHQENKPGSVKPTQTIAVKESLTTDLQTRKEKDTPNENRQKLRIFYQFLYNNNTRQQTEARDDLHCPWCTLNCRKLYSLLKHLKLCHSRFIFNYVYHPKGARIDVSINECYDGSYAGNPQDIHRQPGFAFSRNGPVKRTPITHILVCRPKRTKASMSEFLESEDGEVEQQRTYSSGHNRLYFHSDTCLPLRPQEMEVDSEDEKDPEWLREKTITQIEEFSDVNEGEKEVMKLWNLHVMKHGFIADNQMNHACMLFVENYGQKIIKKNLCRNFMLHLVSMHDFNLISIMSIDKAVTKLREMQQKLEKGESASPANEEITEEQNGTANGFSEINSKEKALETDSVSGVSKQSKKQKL
T1 sequence (O75530 2-441 partner limits assumed): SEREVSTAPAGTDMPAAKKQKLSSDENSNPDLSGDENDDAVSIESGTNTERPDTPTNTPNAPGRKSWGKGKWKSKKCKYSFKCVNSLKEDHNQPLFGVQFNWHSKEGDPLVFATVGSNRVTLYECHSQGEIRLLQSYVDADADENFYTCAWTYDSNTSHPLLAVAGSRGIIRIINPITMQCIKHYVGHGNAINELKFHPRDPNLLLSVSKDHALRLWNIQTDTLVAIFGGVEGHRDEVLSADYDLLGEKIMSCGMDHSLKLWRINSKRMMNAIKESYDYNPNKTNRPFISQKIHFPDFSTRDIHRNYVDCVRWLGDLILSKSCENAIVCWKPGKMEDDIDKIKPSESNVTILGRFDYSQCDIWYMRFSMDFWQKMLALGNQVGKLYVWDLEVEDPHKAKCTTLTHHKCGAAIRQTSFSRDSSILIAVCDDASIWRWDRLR
Put plainly: Inhibitory effect on EZH1 by the MTase-Glo method (Test Example 1). The format is biochemical. The following applies: EZH1/SUZ/EED 25 nM, H3 peptide 10 μM, SAM 3 μM, 30° C. 3 h, read-out: Test Example 1 WT EZH1 IC50. Summed up:
(§1)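 EZH2/SUZ/EED (6.25 nM) or EZH1/SUZ/EED (25 nM) pre-incubated 15 min with compound in pH 7.6 Bicine buffer, 0.5% DMSO. Biotinylated H3(21-44) peptide 10 μM plus SAM 3 μM reacted 3 h at 30 °C; MTase-Glo luminescence normalized to controls, IC50 from variable-slope fit.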

The test system of test [1] is H3K27Me3 methylation in Karpas-422 cells. Put plainly: H3K27Me3 cell method, inhibition of H3K27Me3 methylation (Test Example 2). The format is cell-based, human. The following applies: Homo sapiens, KARPAS-422, 72 h. As for the experimental part:
Karpas-422 (Nanjing Kebai, CBP60629) cells were seeded in a 96-well plate (Corning, 3894) at 15,000 cells per well in culture medium (80% 1640 (Hyclone, SH30809.01)+20% FBS (Corning, 35-081-CV)), and then added with different concentrations of compounds for treatment. The cell growth group without adding compounds is used as a positive control (maximum signal control), and the medium is used as a negative control (minimum signal control), while ensuring that in each reaction well, the final concentration of DMSO was 0.2%. Compounds and cells were incubated for 3 days in a cell culture incubator (37° C., 5% CO2). The 96-well plate was taken out from the cell culture incubator and equilibrated to room temperature, and 25 ul of cell suspension was taken out into a 384-well plate. The CCK8 (Beiyuntian, C0040) detection reagent was added, incubated at 37° C. for 1 h, and […] was detected. The rest of the cells followed the procedure of the kit EPIgeneous H3K27Me3 cellular kit (Cisbio, 62KC3PAE) to carry out experiment, read HTRF signal with BMG PHERAStar. […] By GraphPad Prism 6 with log(inhibitor)vs.response-Variable slope model simulation, the IC50 of the compound on cell activity inhibition was calculated. The fitting equation is: Y=Bottom+(Top−Bottom)/(1+10^((Log IC50−X)*HillSlope)), wherein Y represents the inhibition rate, and X represents the known concentration of the compound after Log.

In a further test the target is T2, EZH2/SUZ/EED (Homo sapiens, UniProt O75530+Q15022+Q15910).
T2 construct: purchased BPS 51003
T2 sequence (Q15910 2-746 limits assumed): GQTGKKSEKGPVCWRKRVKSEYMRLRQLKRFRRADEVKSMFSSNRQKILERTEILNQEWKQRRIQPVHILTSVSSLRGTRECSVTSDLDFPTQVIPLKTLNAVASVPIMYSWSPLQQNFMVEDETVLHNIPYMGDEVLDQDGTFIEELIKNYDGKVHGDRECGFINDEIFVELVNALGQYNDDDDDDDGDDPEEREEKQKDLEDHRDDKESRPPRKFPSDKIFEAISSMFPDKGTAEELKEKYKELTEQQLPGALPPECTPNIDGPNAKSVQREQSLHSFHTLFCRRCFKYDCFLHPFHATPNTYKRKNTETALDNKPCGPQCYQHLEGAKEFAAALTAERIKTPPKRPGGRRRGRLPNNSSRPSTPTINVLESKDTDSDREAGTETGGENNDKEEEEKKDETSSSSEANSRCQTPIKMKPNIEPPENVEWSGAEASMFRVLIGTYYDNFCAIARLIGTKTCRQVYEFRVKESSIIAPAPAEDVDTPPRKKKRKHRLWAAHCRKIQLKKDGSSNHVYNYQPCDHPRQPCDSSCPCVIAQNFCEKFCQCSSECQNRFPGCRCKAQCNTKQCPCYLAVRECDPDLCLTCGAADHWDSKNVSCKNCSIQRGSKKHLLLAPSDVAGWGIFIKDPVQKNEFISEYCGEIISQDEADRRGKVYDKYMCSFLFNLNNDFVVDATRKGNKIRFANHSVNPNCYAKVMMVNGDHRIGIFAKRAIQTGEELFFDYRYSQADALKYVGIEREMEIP
T2 sequence (Q15022 2-739 partner limits assumed): as the sequence (Q15022 2-739 partner limits assumed) above
T2 sequence (O75530 2-441 partner limits assumed): as the sequence (O75530 2-441 partner limits assumed) above
Put plainly: Inhibitory effect on EZH2 by the MTase-Glo method (Test Example 1). The format is biochemical. The following applies: EZH2/SUZ/EED 6.25 nM, H3 peptide 10 μM, SAM 3 μM, 30° C. 3 h, read-out: Test Example 1 WT EZH2 IC50. Summed up:
as §1

The mark [2] stands for this setting: Karpas-422 cells, 3 days incubation, HTRF signal, read-out: Test Example 2 H3K27Me3 inhibition (Karpas-422) IC50.
The mark [3] stands for this setting: read-out: Test Example 2 H3K27Me3 inhibition (Karpas-422) IC50(nM).

For the compound `CSc1cc(C)[nH]c(=O)c1CNC(=O)c1cc(Cl)c2c(c1C)O[C@@H](C1CCN(CC3CCC3)CC1)CO2` [Compound 25], the concentration for half-maximal inhibition (IC50) (in general, the concentration that inhibits the measured activity by half) on EZH1/SUZ/EED came out at 8.3 nM; in test [1] (setting [2]), 17.3 nM; at EZH2/SUZ/EED it was 1.6 nM.
The matching figures for `COCCN(C)[C@H]1CC[C@@H]([C@H]2COc3c(Cl)cc(C(=O)NCc4c(SC)cc(C)[nH]c4=O)c(C)c3O2)CC1` [Compound 26]: 5.4 nM, 3.4 nM and 2 nM.
For the compound `COCCN(C)[C@H]1CC[C@H]([C@H]2COc3c(Cl)cc(C(=O)NCc4c(SC)cc(C)[nH]c4=O)c(C)c3O2)CC1` [Compound 27], the half-maximal inhibitory concentration (IC50) on EZH1/SUZ/EED stood at 14.4 nM; in test [1] (setting [2]) it was 11.4 nM; at EZH2/SUZ/EED, 2.3 nM.
The matching figures for `CSc1cc(C)[nH]c(=O)c1CNC(=O)c1cc(Cl)c2c(c1C)O[C@@H]([C@H]1CC[C@@H](N3CC4(COC4)C3)CC1)CO2` [Compound 28]: 9.4 nM, 8.2 nM and 3.7 nM.
On the same counts, the results for `CSc1cc(C)[nH]c(=O)c1CNC(=O)c1cc(Cl)c2c(c1C)O[C@@H]([C@H]1CC[C@H](N3CC4(COC4)C3)CC1)CO2` [Compound 29] are 5.8 nM, 34.2 nM and 3.3 nM.
Take `CSc1cc(C)[nH]c(=O)c1CNC(=O)c1cc(Cl)c2c(c1C)O[C@@H]([C@H]1CC[C@H](N3CCC3)CC1)CO2` [Compound 33]: the IC50 on EZH1/SUZ/EED was 9.4 nM; in test [1] (setting [3]), 7.7 nM; on EZH2/SUZ/EED, 3.6 nM.
`CSc1cc(C)[nH]c(=O)c1CNC(=O)c1cc(Cl)c2c(c1C)O[C@@H]([C@H]1CC[C@H](N3CC(CF)C3)CC1)CO2` [Compound 35]: the IC50 on EZH1/SUZ/EED was found to be 7.4 nM; in test [1] (setting [2]), 60.5 nM; at EZH2/SUZ/EED, 3.4 nM.
For the compound `CSc1cc(C)[nH]c(=O)c1CNC(=O)c1cc(Cl)c2c(c1C)O[C@@H]([C@H]1CC[C@@H](NC3(CF)COC3)CC1)CO2` [Compound 36], the IC50 at EZH1/SUZ/EED is 9.7 nM; in test [1] (setting [2]), 11 nM; on EZH2/SUZ/EED it was 2.4 nM.
The matching figures for `CSc1cc(C)[nH]c(=O)c1CNC(=O)c1cc(Cl)c2c(c1C)O[C@@H]([C@H]1CC[C@H](NC3(CF)COC3)CC1)CO2` [Compound 37]: 5.9 nM, 7 nM and 3.1 nM.
On the same counts, the results for `CCS(=O)(=O)N1CCC([C@H]2COc3c(Cl)cc(C(=O)NCc4c(SC)cc(C)[nH]c4=O)c(C)c3O2)CC1` [Compound 38] are 4.7 nM, 11.5 nM and 2.3 nM.
On the same counts, the results for `COC1C2CN([C@H]3CC[C@@H]([C@H]4COc5c(Cl)cc(C(=O)NCc6c(SC)cc(C)[nH]c6=O)c(C)c5O4)CC3)CC21` (stereo partly drawn) [Compound 43] are 4.1 nM, 4.1 nM and 3.6 nM.
As for `Cc1cc(C)c(CNC(=O)c2cc(Cl)c3c(c2C)O[C@@H]([C@H]2CC[C@@H](N4CC5COCC5C4)CC2)CO3)c(=O)[nH]1` (stereo partly drawn) [Compound 73], the IC50 is 196 nM on EZH1/SUZ/EED, greater than 1000 nM in test [1] (setting [2]) and 51.3 nM on EZH2/SUZ/EED.
On the same counts, the results for `Cc1cc(C)c(CNC(=O)c2cc(Cl)c3c(c2C)O[C@@H]([C@H]2CC[C@H](N4CC5COCC5C4)CC2)CO3)c(=O)[nH]1` (stereo partly drawn) [Compound 75] are 199 nM, 245 nM and 48.1 nM.
The matching figures for `COCCOC1CN([C@H]2CC[C@@H]([C@H]3COc4c(Cl)cc(C(=O)NCc5c(C)cc(C)[nH]c5=O)c(C)c4O3)CC2)C1` [Compound 91]: 27.3 nM, 11.7 nM and 3.8 nM.
On the same counts, the results for `COC1CN([C@H]2CC[C@@H]([C@H]3COc4c(Cl)cc(C(=O)NCc5c(C)cc(C)[nH]c5=O)c(C)c4O3)CC2)C1` [Compound 92] are 33.1 nM, 22 nM and 2.5 nM.
For `COCCN(C)[C@H]1CC[C@@H]([C@H]2COc3c(Cl)cc(C(=O)NCc4c(OC)cc(C)[nH]c4=O)c(C)c3O2)CC1` [Compound 107], the figures for the 50% inhibitory concentration (IC50) (at EZH1/SUZ/EED; in test [1] (setting [2]); at EZH2/SUZ/EED) were 17.8 nM, 56.9 nM and 3.2 nM, respectively.
On the same counts, the results for `COc1cc(C)[nH]c(=O)c1CNC(=O)c1cc(Cl)c2c(c1C)O[C@@H]([C@H]1CC[C@H](N3CC(OCCF)C3)CC1)CO2` [Compound 110] are 15.4 nM, 21.3 nM and 2.7 nM.
In the case of `Cc1cc(C)c(CNC(=O)c2cc(Cl)c3c(c2C)OC(C2CCC(N(C)C)CC2)C(C)O3)c(=O)[nH]1` (stereo not drawn) [Compound 124], the IC50 at EZH1/SUZ/EED was 326 nM; in test [1] (setting [3]), 133 nM; on EZH2/SUZ/EED, 16.1 nM.
Turning to `Cc1cc(C)c(CNC(=O)c2cc(Cl)c3c(c2C)OC(C2CCC(N(C)CCF)CC2)CO3)c(=O)[nH]1` (stereo not drawn) [Compound 125], the IC50 on EZH1/SUZ/EED was found to be 307 nM; in test [1] (setting [2]) it was 402 nM; on EZH2/SUZ/EED it was 33.9 nM.
On the same counts, the results for `Cc1cc(C)c(CNC(=O)c2cc(Cl)c3c(c2C)OC(C2CCC(N(C)C4CC(F)C4)CC2)CO3)c(=O)[nH]1` (stereo not drawn) [Compound 126] are 218 nM, 818 nM and 20.3 nM.
The matching figures for `Cc1cc(C)c(CNC(=O)c2c(C)c3c(c(Cl)c2F)OC[C@H]([C@H]2CC[C@@H](N(C)C)CC2)O3)c(=O)[nH]1` [Compound 131]: 46.8 nM, 43.3 nM and 3.1 nM.
As to `Cc1cc(C)c(CNC(=O)c2cc(Cl)c3c(c2Cl)OC[C@@H]([C@H]2CC[C@@H](N(C)C)CC2)O3)c(=O)[nH]1` [Compound 147], the concentration for half-maximal inhibition (IC50) on EZH1/SUZ/EED came to 92 nM; in test [1] (setting [3]), 83 nM; at EZH2/SUZ/EED it was 6.8 nM.
On the same counts, the results for `Cc1cc(C)c(CNC(=O)c2cc(Cl)c3c(c2C)CC(C)(C2CCC(N(C)C)CC2)O3)c(=O)[nH]1` (stereo not drawn) [Compound 181] are 1350 nM, 410 nM and 30.4 nM.
